The text below walks through data of patent publication US20040014946A1, “Protein interaction method and composition” (priority 2002, published 2004).

For this assay, the system named is AbI Protein Tyrosine Kinase. The assay is described as follows: On-chip phosphorylation inhibition screening assay (biofunction chip, MALDI MS). The format is biochemical. The settings on record: 250 nM substrate, 23° C. Here is the method: FIG. 8 illustrates a biofunction chip with enzymatic functions. The reaction components consisted of 0.4U/well of AbI at pH 7.5, 0.1 mM ATP, and 400 nM substrate. 4 μl were added per well, and the reaction was incubated at 23° C. for 90 minutes. On-chip phosphorylation in rabbit reticulocyte extract with various substrate concentrations (0, 10, 30, 100, and 300 nM) is shown in FIG. 10. Reproducibility of the spectra in the same scale and in different scales normalized to the phosphorylated peaks are shown in FIG. 13. The percent phosphorylation is determined over time for 1 Unit of substrate per well versus 0.12 Unit substrate per well.
Screening assays for ATP analogs or substrate analogs capable of inhibiting phosphorylation were also tested. […] 250 nM substrate, 5 μM ATP, 20 U/well AbI TK, and 0, 4, 8, 12, 16, and 20 μM ATTP were incubated at 23° C. for 60 minutes. […] 250 nM substrate, 5 μM ATP, 20 U/well AbI TK, and 0, 5, 10, 15 and 40 μM Genistein were incubated at 23° C. for 60 minutes. […] 250 nM substrate, 100 μM ATP, 0.4 Units/well AbI TK, and 0, 1, 2, 4, 8, and 12 μM Erbstain were incubated at 23° C. for 60 minutes.
The components of biofunction chips are useful for kinase studies, histone acetylation, DNA methylation and protease studies. […]

In the case of `O=CN/C=C/c1cc(O)ccc1O` [Erbstain], the inhibition of phosphorylation result (100 μM ATP, 0.4 Units/well AbI TK, 0, 1, 2, 4, 8 and 12 μM Erbstain, 60 minutes (FIG. 16)) was “inhibition of phosphorylation”.

Consider `O=c1c(-c2ccc(O)cc2)coc2cc(O)cc(O)c12` [Genistein], for which the inhibition of phosphorylation entry (5 μM ATP, 20 U/well AbI TK, 0, 5, 10, 15 and 40 μM Genistein, 60 minutes (FIG. 15)) is “inhibition of phosphorylation”.
